Data as given in patent publication US9902696B2, “1,4-substituted piperidine derivatives” (Cephalon, Inc., priority 2015, dated 2018).
Structures can show the parent of a compound that is named as a salt.

molecular target: T1, recombinant human baculovirus-expressed GST-tagged FASN (Homo sapiens, UniProt P49327); experiment: FASN enzyme activity assay, fluorescence-based detection of CoA with CPM; format: biochemical; conditions: 5 nM FASN, 150 μM NADPH, 10 μM acetyl-CoA, 25 μM malonyl-CoA, 90 minutes incubation; read-out: IC50 data for Compounds of Formulae I-V/V(a): Activity
T1 construct: GST
How it was run: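 CoA product reacted with thiol-reactive CPM (diluted to 50 μM in 70% ethanol), read at 390/530 nm after 30 min. Preceding reaction: 90 min, 5 nM recombinant GST-FASN, 150 μM NADPH, 10 μM acetyl-CoA, 25 μM malonyl-CoA, pH 7.5 HEPES, 0.5% DMSO. IC50s fitted by nonlinear sigmoidal regression.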

T1 sequence (P49327 whole entry): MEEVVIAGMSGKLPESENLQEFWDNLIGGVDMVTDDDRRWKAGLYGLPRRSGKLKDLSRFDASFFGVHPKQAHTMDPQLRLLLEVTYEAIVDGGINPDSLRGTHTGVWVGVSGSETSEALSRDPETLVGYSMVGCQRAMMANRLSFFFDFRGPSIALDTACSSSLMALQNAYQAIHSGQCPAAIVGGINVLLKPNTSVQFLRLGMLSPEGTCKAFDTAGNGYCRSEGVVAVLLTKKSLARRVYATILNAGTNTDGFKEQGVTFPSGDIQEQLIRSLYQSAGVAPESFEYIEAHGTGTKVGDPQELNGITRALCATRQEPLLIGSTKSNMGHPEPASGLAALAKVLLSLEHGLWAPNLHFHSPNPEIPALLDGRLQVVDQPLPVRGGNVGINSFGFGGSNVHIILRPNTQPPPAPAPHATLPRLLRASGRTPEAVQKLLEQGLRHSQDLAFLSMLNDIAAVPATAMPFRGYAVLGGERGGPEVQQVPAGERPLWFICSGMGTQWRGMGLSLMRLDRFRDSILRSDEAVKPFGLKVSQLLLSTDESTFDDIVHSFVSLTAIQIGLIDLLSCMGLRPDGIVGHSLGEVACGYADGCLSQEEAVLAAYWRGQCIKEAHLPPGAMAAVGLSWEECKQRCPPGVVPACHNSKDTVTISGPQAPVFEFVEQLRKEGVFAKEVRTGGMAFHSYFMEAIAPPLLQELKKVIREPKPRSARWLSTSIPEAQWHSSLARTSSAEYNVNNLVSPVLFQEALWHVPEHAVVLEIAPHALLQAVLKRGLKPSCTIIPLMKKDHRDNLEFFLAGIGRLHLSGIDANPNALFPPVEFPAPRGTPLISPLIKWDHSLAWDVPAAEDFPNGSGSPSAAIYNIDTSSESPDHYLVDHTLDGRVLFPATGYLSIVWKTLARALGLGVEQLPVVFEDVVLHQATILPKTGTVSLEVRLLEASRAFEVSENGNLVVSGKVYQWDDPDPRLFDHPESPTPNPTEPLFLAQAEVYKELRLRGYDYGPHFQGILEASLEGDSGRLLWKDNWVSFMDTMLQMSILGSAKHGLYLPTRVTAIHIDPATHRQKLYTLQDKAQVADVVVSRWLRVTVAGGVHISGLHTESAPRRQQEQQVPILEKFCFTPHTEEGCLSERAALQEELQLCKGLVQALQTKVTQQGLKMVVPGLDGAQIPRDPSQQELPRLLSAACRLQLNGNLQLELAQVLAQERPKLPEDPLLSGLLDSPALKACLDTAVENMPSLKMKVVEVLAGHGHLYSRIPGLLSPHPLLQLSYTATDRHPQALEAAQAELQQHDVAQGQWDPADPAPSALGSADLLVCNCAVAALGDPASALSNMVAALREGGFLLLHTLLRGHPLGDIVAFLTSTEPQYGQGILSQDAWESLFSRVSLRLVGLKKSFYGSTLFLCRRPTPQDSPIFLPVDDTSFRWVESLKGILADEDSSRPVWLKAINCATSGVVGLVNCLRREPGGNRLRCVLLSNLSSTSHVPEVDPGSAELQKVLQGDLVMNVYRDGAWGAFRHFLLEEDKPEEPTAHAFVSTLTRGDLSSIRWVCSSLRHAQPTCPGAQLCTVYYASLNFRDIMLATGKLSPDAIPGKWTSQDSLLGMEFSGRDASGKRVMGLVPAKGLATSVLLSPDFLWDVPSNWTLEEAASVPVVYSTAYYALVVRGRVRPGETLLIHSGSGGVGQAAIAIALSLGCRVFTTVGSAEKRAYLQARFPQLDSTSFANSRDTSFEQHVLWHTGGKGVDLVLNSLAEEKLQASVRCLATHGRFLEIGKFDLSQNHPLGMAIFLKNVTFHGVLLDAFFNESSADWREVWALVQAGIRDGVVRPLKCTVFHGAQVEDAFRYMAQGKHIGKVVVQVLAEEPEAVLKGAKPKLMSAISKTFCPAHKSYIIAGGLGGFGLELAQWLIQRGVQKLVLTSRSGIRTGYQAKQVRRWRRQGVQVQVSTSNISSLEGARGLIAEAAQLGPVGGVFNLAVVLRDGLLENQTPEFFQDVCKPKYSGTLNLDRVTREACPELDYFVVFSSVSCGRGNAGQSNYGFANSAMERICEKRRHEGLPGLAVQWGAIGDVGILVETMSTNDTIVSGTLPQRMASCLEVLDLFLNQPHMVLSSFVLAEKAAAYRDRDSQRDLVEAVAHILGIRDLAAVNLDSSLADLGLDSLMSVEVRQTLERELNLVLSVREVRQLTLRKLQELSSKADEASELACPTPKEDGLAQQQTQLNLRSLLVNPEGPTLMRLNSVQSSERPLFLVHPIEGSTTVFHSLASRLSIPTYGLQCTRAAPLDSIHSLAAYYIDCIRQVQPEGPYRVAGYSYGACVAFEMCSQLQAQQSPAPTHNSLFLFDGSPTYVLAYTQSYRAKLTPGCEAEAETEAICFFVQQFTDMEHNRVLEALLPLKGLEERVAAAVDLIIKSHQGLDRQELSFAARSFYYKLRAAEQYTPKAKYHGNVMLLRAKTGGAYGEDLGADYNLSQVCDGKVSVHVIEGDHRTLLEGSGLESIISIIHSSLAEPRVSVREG

Compound | IC50
O=C([C@H]1CCCO1)N1CCC(Oc2ccc(-c3cnc4sccc4c3)cc2)CC1 [Example 254, (R)-Tetrahydrofuran-2-yl-[4-(4-thieno[2,3-b]pyridin-5-yl-phenoxy)-piperidin-1-yl]-methanone, TFA salt] | 1 to 99 nM
O=C(C1CC1)N1CCC(Oc2ccc(-c3cnc4sccc4c3)cc2)CC1 [Example 255, Cyclopropyl-[4-(4-thieno[2,3-b]pyridin-5-yl-phenoxy)-piperidin-1-yl]-methanone, TFA salt] | 1 to 99 nM
CCC(=O)N1CCC(Oc2ccc(-c3ccc4nccn4c3)cc2)CC1 [Example 256, 1-[4-(4-Imidazo[1,2-a]pyridin-6-yl-phenoxy)-piperidin-1-yl]-propan-1-one, TFA salt] | 100 to 999 nM
CCC(=O)N1CCC(Oc2ccc(-c3ccc4c(Cl)ccnc4c3)cc2)CC1 [Example 259, 1-{4-[4-(4-Chloroquinolin-7-yl)-phenoxy]-piperidin-1-yl}-propan-1-one, TFA salt] | 100 to 999 nM
O=C([C@H]1CCCO1)N1CCC(Oc2ccc(-c3ccc4cccnc4c3Cl)cc2)CC1 [Example 260, {4-[4-(8-Chloro-quinolin-7-yl)-phenoxy]-piperidin-1-yl}-(R)-tetrahydro-furan-2-yl-methanone, TFA salt] | 1 to 99 nM
CCC(=O)N1CCC(Oc2ccc(-c3ccc4cccnc4c3Cl)cc2)CC1 [Example 261, 1-{4-[4-(8-Chloroquinolin-7-yl)-phenoxy]-piperidin-1-yl}-propan-1-one] | 1 to 99 nM
O=C([C@H]1CCCO1)N1CCC(Oc2ccc(-c3cnc4ccsc4c3)cc2)CC1 [Example 263, (R)-Tetrahydrofuran-2-yl-[4-(4-thieno[3,2-b]pyridin-6-yl-phenoxy)-piperidin-1-yl]-methanone, TFA salt] | 1 to 99 nM
CCC(=O)N1CCC(Oc2ccc(-c3cnc4ccsc4c3)cc2)CC1 [Example 264, 1-[4-(4-Thieno[3,2-b]pyridin-6-yl-phenoxy)-piperidin-1-yl]-propan-1-one, TFA salt] | 1000 to 10000 nM
O=C([C@H]1CCCO1)N1CCC(Oc2ccc(-c3ccc4cc(Cl)cnc4c3)cc2)CC1 [Example 265, {4-[4-(3-Chloroquinolin-7-yl)-phenoxy]-piperidin-1-yl}-(R)-tetrahydro-furan-2-yl-methanone, TFA salt] | 1 to 99 nM
O=C([C@H]1CCCO1)N1CCC(Oc2ccc(-c3ccc4scnc4c3)cc2)CC1 [Example 267, [4-(4-Benzothiazol-5-yl-phenoxy)-piperidin-1-yl]-(R)-tetrahydrofuran-2-yl-methanone, TFA salt] | 1 to 99 nM
O=C(C1CC1)N1CCC(Oc2ccc(-c3ccc4scnc4c3)cc2)CC1 [Example 268, [4-(4-Benzothiazol-5-yl-phenoxy)-piperidin-1-yl]-cyclopropylmethanone, TFA salt] | 1000 to 10000 nM
CCC(=O)N1CCC(Oc2ccc(-c3ccc4scnc4c3)cc2)CC1 [Example 269, 1-[4-(4-Benzothiazol-5-yl-phenoxy)-piperidin-1-yl]-propan-1-one; TFA salt] | 100 to 999 nM
Cn1ncc2ccc(-c3ccc(OC4CCN(C(=O)C5CC5)CC4)cc3)cc21 [Example 270, Cyclopropyl-{4-[4-(1-methyl-1H-indazol-6-yl)-phenoxy]-piperidin-1-yl}-methanone. TFA salt] | 100 to 999 nM
COc1c(-c2ccc(OC3CCN(C(=O)[C@H]4CCCO4)CC3)cc2)ccc2cccnc12 [Example 272, {4-[4-(8-Methoxyquinolin-7-yl)-phenoxy]-piperidin-1-yl}-(R)-tetrahydro-furan-2-yl-methanone, TFA salt] | 1 to 99 nM
Cc1cc2cccnc2cc1-c1ccc(OC2CCN(C(=O)[C@H]3CCCO3)CC2)cc1 [Example 275, {4-[4-(6-Methylquinolin-7-yl)-phenoxy]-piperidin-1-yl}-(R)-tetrahydro-furan-2-yl-methanone] | 100 to 999 nM
CCC(=O)N1CCC(Oc2ccc(-c3cc4ncccc4cc3C)cc2)CC1 [Example 276, 1-{4-[4-(6-Methylquinolin-7-yl)-phenoxy]-piperidin-1-yl}-propan-1-one] | 1000 to 10000 nM
CCC(=O)N1CCC(Oc2ccc(-c3ccc4cc(C#N)cnc4c3)cc2)CC1 [Example 277, 7-[4-(1-Propionyl-piperidin-4-yloxy)-phenyl]-quinoline-3-carbonitrile] | 100 to 999 nM
N#Cc1cnc2cc(-c3ccc(OC4CCN(C(=O)C5CC5)CC4)cc3)ccc2c1 [Example 279, 7-[4-(1-Cyclopropanecarbonyl-piperidin-4-yloxy)-phenyl]-quinoline-3-carbonitrile] | 100 to 999 nM
CCC(=O)N1CCC(Oc2ccc(-c3ccc4cc(C)cnc4c3)cc2)CC1 [Example 280, 1-{4-[4-(3-Methylquinolin-7-yl)-phenoxy]-piperidin-1-yl}-propan-1-one] | 1 to 99 nM
Cc1cnc2cc(-c3ccc(OC4CCN(C(=O)[C@H]5CCCO5)CC4)cc3)ccc2c1 [Example 281, {4-[4-(3-Methylquinolin-7-yl)-phenoxy]-piperidin-1-yl}-(R)-tetrahydro-furan-2-yl-methanone] | 1000 to 10000 nM
Cc1cnc2cc(-c3ccc(OC4CCN(C(=O)C5CC5)CC4)cc3)ccc2c1 [Example 282, Cyclopropyl-{4-[4-(3-methylquinolin-7-yl)-phenoxy]-piperidin-1-yl}-methanone] | 1000 to 10000 nM
Cc1cc(-c2ccc(OC3CCN(C(=O)[C@H]4CCCO4)CC3)cc2)cn2ccnc12 [Example 283, {4-[4-(8-Methylimidazo[1,2-a]pyridin-6-yl)-phenoxy]-piperidin-1-yl}-(R)-tetrahydrofuran-2-yl-methanone] | 1 to 99 nM
CCC(=O)N1CCC(Oc2ccc(-c3cc(C)c4nccn4c3)cc2)CC1 [Example 284, 1-{4-[4-(8-Methylimidazo[1,2-a]pyridin-6-yl)-phenoxy]-piperidin-1-yl}-propan-1-one] | 1000 to 10000 nM
Cc1c(-c2ccc(OC3CCN(C(=O)[C@H]4CCCO4)CC3)cc2)ccc2nccn12 [Example 285, {4-[4-(5-Methylimidazo[1,2-a]pyridin-6-yl)-phenoxy]-piperidin-1-yl}-(R)-tetrahydrofuran-2-yl-methanone] | 1 to 99 nM
Cc1nc2ccc(-c3ccc(OC4CCN(C(=O)[C@H]5CCCO5)CC4)cc3)cn2c1C [Example 289, {4-[4-(2,3-Dimethylimidazo[1,2-a]pyridin-6-yl)-phenoxy]-piperidin-1-yl}-(R)-tetrahydrofuran 2-yl-methanone] | 1000 to 10000 nM
CCC(=O)N1CCC(Oc2ccc(-c3ccc4nc(C)c(C)n4c3)cc2)CC1 [Example 290, 1-{4-[4-(2,3-Dimethylimidazo[1,2-a]pyridin-6-yl)-phenoxy]-piperidin-1-yl}-propan-1-one] | 1000 to 10000 nM

Results, then the molecule that gave them:

IC50 | Compound
100 to 999 nM | CCC(=O)N1CCC(Oc2ccc(-c3cnc4ncccc4c3)cc2)CC1 [Example 252, 1-[4-(4-[1,8]Naphthyridin-3-yl-phenoxy)-piperidin-1-yl]-propan-1-one, TFA salt]
1000 to 10000 nM | CCC(=O)N1CCC(Oc2ccc(-c3ccc4ccc(C)nc4c3)cc2)CC1 [Example 253, 1-{4-[4-(2-Methylquinolin-7-yl)-phenoxy]-piperidin-1-yl}-propan-1-one, TFA salt]
1 to 99 nM | O=C([C@H]1CCCO1)N1CCC(Oc2ccc(-c3ccc4c(Cl)ccnc4c3)cc2)CC1 [Example 257, {4-[4-(4-Chloroquinolin-7-yl)-phenoxy]-piperidin-1-yl}-(R)-tetrahydro-furan-2-yl-methanone, TFA salt]
100 to 999 nM | O=C(C1CC1)N1CCC(Oc2ccc(-c3ccc4c(Cl)ccnc4c3)cc2)CC1 [Example 258, {4-[4-(4-Chloroquinolin-7-yl)-phenoxy]-piperidin-1-yl}-cyclopropyl-methanone, TFA salt]
1 to 99 nM | COc1ccc2cc(-c3ccc(OC4CCN(C(=O)[C@H]5CCCO5)CC4)cc3)cnc2c1 [Example 262, {4-[4-(7-Methoxyquinolin-3-yl)-phenoxy]-piperidin-1-yl}-(R)-tetrahydro-furan-2-yl-methanone]
100 to 999 nM | CCC(=O)N1CCC(Oc2ccc(-c3ccc4cc(Cl)cnc4c3)cc2)CC1 [Example 266, 1-{4-[4-(3-Chloroquinolin-7-yl)-phenoxy]-piperidin-1-yl}-propan-1-one, TFA salt]
100 to 999 nM | Cn1ncc2ccc(-c3ccc(OC4CCN(C(=O)C5CCC5)CC4)cc3)cc21 [Example 271, Cyclobutyl-{4-[4-(1-methyl-1H-indazol-6-yl)-phenoxy]-piperidin-1-yl}-methanone, TFA salt]
1 to 99 nM | CCC(=O)N1CCC(Oc2ccc(-c3ccc4cccnc4c3OC)cc2)CC1 [Example 273, 1-{4-[4-(8-Methoxyquinolin-7-yl)-phenoxy]-piperidin-1-yl}-propan-1-one, TFA salt]
1 to 99 nM | COc1c(-c2ccc(OC3CCN(C(=O)C4CC4)CC3)cc2)ccc2cccnc12 [Example 274, Cyclopropyl-{4-[4-(8-methoxyquinolin-7-yl)-phenoxy]-piperidin-1-yl}-methanone, HCl]
1 to 99 nM | N#Cc1cnc2cc(-c3ccc(OC4CCN(C(=O)[C@H]5CCCO5)CC4)cc3)ccc2c1 [Example 278, 7-{4-[1-((R)-Tetrahydrofuran-2-carbonyl)-piperidin-4-yloxy]-phenyl}-quinoline-3-carbonitrile]
1000 to 10000 nM | CCC(=O)N1CCC(Oc2ccc(-c3ccc4nccn4c3C)cc2)CC1 [Example 286, 1-{4-[4-(5-Methylimidazo[1,2-a]pyridin-6-yl)-phenoxy]-piperidin-1-yl}-propan-1-one]
100 to 999 nM | Cc1c(-c2ccc(OC3CCN(C(=O)C4CC4)CC3)cc2)ccc2nccn12 [Example 287, Cyclopropyl-{4-[4-(5-methyl-imidazo[1,2-a]pyridin-6-yl)-phenoxy]-piperidin-1-yl}-methanone]
100 to 999 nM | Cc1cc(-c2ccc(OC3CCN(C(=O)C4CC4)CC3)cc2)cn2ccnc12 [Example 288, Cyclopropyl-{4-[4-(8-methylimidazo[1,2-a]pyridin-6-yl)-phenoxy]-piperidin-1-yl}-methanone]
